Test results as given in patent US10576102B2, “KOC1-derived peptide and vaccine including same” (ONCOTHERAPY SCIENCE, INC., priority 2014, dated 2020).
“Also recorded” adds a separate entry of the source.

Legend:
peptide-pulsed C1R-A01 [1] = test: IFN-gamma ELISA of CTL lines and CTL clone (HLA-A*0101); type: cell-based, human; conditions: CTL lines; target cells pulsed with the peptide vs not pulsed; C1R-A01
Experimental: (§1) CTLs were propagated in culture using methods similar to those disclosed by Riddell et al. (Walter E A et al., N Engl J Med 1995, 333(16): 1038-44; Riddell S R et al., Nat Med 1996, 2(2): 216-23). The CTLs were co-cultured in a total of 25 ml AIM-V medium containing 5% AS and 40 ng/ml anti-CD3 antibody with two types of Mitomycin C-treated human B lymphoblastoid cell lines at 5×10^6 cells. One day after beginning of the culturing, 120 IU/ml IL-2 was added to the culture. On days 5, 8 and 11, a fresh AIM-V/5% AS medium containing 30 IU/ml IL-2 was added to the culture (Tanaka H et al., Br J Cancer 2001, 84(1): 94-9; Umano Y et al., Br J Cancer 2001, 84(8): 1052-7; Uchida N et al., Clin Cancer Res 2004, 10(24): 8577-86; Suda T et al., Cancer Sci 2006, 97(5): 411-9; Watanabe T et al., Cancer Sci 2005, 96(8): 498-506).
CTLs were seeded to make 1 or 10 cells/well in 96 round-bottomed microtiter plates (Nalge Nunc International). The CTLs were co-cultured with two types of Mitomycin C-treated human B lymphoblastoid cell lines at 1×10^4 cells in a total of 150 micro-1/well 5% AS-containing AIM-V medium with 30 ng/ml anti-CD3 antibody and 125 IU/ml IL-2. Ten days later, 50 micro-1 of IL-2 was added to the medium to reach a final IL-2 concentration of 125 IU/ml. On day 14, the CTL activity was tested, and the CTL clones were propagated using the same method as described above (Uchida N et al., Clin Cancer Res 2004, 10(24): 8577-86; Suda T et al., Cancer Sci 2006, 97(5): 411-9; Watanabe T et al., Cancer Sci 2005, 96(8): 498-506).
(§2) Specifically, peptide-pulsed C1R-A01 (1×10^4 cells/well) was prepared as the stimulator cell. The induced CTLs, i.e., CTL lines and CTL clones, were used as the responder cell. The IFN-gamma ELISPOT assay and IFN-gamma ELISA were performed according to the manufacturer's manual.

peptide-pulsed C1R-A01 [2] = test: In vitro CTL induction, IFN-gamma ELISPOT assay (HLA-A*0101); type: cell-based, human; conditions: CTLs induced with peptide-pulsed DCs from HLA-A*0101-positive volunteers; day 21; vs peptide-pulsed C1R-A01, compared with unpulsed control
Experimental: (§3) C1R (C1R-A01) that stably expresses HLA-A*0101 was used as a stimulator cell. A cDNA encoding the open-reading frame of HLA-A*0101 was amplified by PCR and cloned into an expression vector. C1R cells were transfected with the expression vector, and then selected using G418 (Invitrogen) for two weeks. The G418-selected cells were seeded into wells containing G418-added culture medium in a 96-well plate, and further cultured for 30 days. The exogenous HLA-A*0101 expression in C1R cells was verified by flow cytometric analysis.
(§4) Monocyte-derived dendritic cells (DCs) were used as the antigen-presenting cell to induce a cytotoxic T lymphocyte (CTL) response against peptides presented on human leukocyte antigens (HLAs). As described in the other sections, DCs were generated in vitro (Nakahara S et al., Cancer Res 2003, 63(14): 4112-8). Specifically, peripheral-blood mononuclear cells isolated from healthy volunteers (HLA-A*0101-positive) with the Ficoll-Paque plus solution (Pharmacia) were separated by attaching to plastic tissue culture dishes (Becton Dickinson) and concentrated as a monocyte fraction. The monocyte-concentrated population was cultured in the presence of 1000 IU/ml granulocyte macrophage colony-stimulating factor (R&D System) and 1000 IU/ml interleukin(IL)-4 (R&D System) in an AIM-V medium (Invitrogen) containing 2% heat-inactivated autologous serum (AS). After seven days of culturing, the cytokine-induced DCs were pulsed with 20 micro-g/ml each of the synthesized peptides in an AIM-V medium at 37 degrees C. for three hours in the presence of 3 micro-g/ml beta 2-microglobulin. Next, these peptide-pulsed DCs were inactivated by X-ray irradiation (20 Gy), and mixed in a 1:20 ratio with autologous CD8^+ T cells obtained by positive selection using the CD8 Positive Isolation Kit (Dynal). These culture products were seeded in a 48-well plate (Corning). Each well was made to contain 1.5×10^4 peptide-pulsed DCs, 3×10^5 CD8^+ T cells and 10 ng/ml IL-7 (R&D System) in 0.5 ml of the AIM-V/2% AS medium. Three days later, these culture products were added with a final concentration of 20 IU/ml IL-2 (CHIRON). On day 7 and day 14, T cells were further stimulated with peptide-pulsed autologous DCs. The DCs were prepared every time by the same method as above. On day 21, after the third peptide stimulation, CTL activities were examined against the peptide-pulsed C1R-A01 cells (Tanaka H et al., Br J Cancer 2001, 84(1): 94-9; Umano Y et al., Br J Cancer 2001, 84(8): 1052-7; Uchida N et al., Clin Cancer Res 2004, 10(24): 8577-86; Suda T et al., Cancer Sci 2006, 97(5): 411-9; Watanabe T et al., Cancer Sci 2005, 96(8): 498-506).
as §2

peptide-pulsed C1R-A11 [3] = test: In vitro CTL induction, IFN-gamma ELISPOT assay (HLA-A*1101); type: cell-based, human; conditions: CTLs induced with peptide-pulsed DCs from HLA-A*1101-positive volunteers; day 21; vs peptide-pulsed C1R-A11, compared with unpulsed control
Experimental: as §3, with “(C1R-A11)” for “(C1R-A01)”, “HLA-A*1101” for “HLA-A*0101”
as §4, with “volunteers (HLA-A*1101-positive)” for “volunteers (HLA-A*0101-positive)”, “2-microglobulin. The generated cells appeared to express on their cell surface DC-associated molecules such as CD80, CD83, CD86 and HLA class II (data not shown).” for “2-microglobulin.”, “were inactivated,” for “were inactivated”, “stimulation, CTLs” for “stimulation, CTL activities”, “peptide-pulsed C1R-A11 by a human interferon (IFN)-gamma enzyme-linked immunospot (ELISPOT) assay” for “peptide-pulsed C1R-A01 cells”
(§5) Specifically, peptide-pulsed C1R-A11 (1×10^4 cells/well) was prepared as the stimulator cell. The induced CTLs, i.e., CTL lines and CTL clones, were used as the responder cell. The IFN-gamma ELISPOT assay and IFN-gamma ELISA were performed according to the manufacturer's manual.

peptide-pulsed C1R-A11 [4] = test: IFN-gamma ELISA of CTL lines and CTL clones (HLA-A*1101); type: cell-based, human
Experimental: as §1, with “5% AS (AIM-V/5% AS) and 40” for “5% AS and 40”, “at 5×10^6 cells/flask. One day” for “at 5×10^6 cells. One day”
Dilution of CTLs was carried out to make 0.3, 1 and 3 cells/well in 96 round-bottomed microtiter plates (Nalge Nunc International). The CTLs were co-cultured with two types of Mitomycin C-treated human B lymphoblastoid cell lines at 1×10^4 cells/well in a total of 150 micro-1/well AIM-V/5% AS medium with 30 ng/ml anti-CD3 antibody and 125 IU/ml IL-2. Ten days later, IL-2 was added to the medium at 50 micro-1/well to reach a final concentration of 125 IU/ml. On day 14, the CTL activity was tested, and the CTL clones were propagated using the same method as described above (Uchida N et al., Clin Cancer Res 2004, 10(24): 8577-86; Suda T et al., Cancer Sci 2006, 97(5): 411-9; Watanabe T et al., Cancer Sci 2005, 96(8): 498-506).
as §5

[5] = tested on: COS7 cells transfected with both KOC1 and HLA-A*1101; test: Specific CTL activity against target cells expressing KOC1 and HLA-A*1101; type: cell-based, African green monkey; conditions: listed as KOC1-A11-10-14
Experimental: as §5
A cDNA encoding the open-reading frame of a target gene or HLA-A*1101 was amplified by PCR. The PCR-amplified product was cloned into an expression vector. Either or both of the target gene-expressing vector and the HLA-A*1101-expressing vector were transfected into […], which is a cell line negative for the target gene and HLA, using Lipofectamine 2000 (Invitrogen) following the manufacturer's recommended protocol. Two days after transfection, the transfected cells were harvested using versene (Invitrogen), and used as the target cell for CTL activity assay (5×10^4 cells/well).
The CTL clone established against KOC1-A11-10-14 (SEQ ID NO: 32) was investigated for its ability to recognize target cells expressing KOC1 and the HLA-A*1101 molecule. COS7 cells transfected with both full-length KOC1 and the HLA-A*1101 gene (a specific model of target cells expressing KOC1 and the HLA-A*1101 gene) were prepared as the target cell. COS7 cells transfected with either full-length KOC1 or HLA-A*1101 were prepared as the control.

| Sequence | IFN-gamma production of CTL lines, ELISA (peptide-pulsed C1R-A01 [1]) | peptide-specific CTL activity (IFN-gamma production), ELISPOT (peptide-pulsed C1R-A01 [2]) | peptide-specific CTL activity (IFN-gamma production), ELISPOT (peptide-pulsed C1R-A11 [3]) | IFN-gamma production of CTL clones, ELISA (peptide-pulsed C1R-A11 [4]; CTL clones by limiting dilution, peptide-pulsed C1R-A11, listed as KOC1-A11-10-14) | IFN-gamma production of CTL lines, ELISA (peptide-pulsed C1R-A11 [4]; CTL lines, target cells pulsed with the peptide vs not pulsed, C1R-A11) | specific CTL activity of CTL clone against target cells expressing KOC1 and HLA-A*1101 ([5]; COS7 transfected with both full-length KOC1 and HLA-A*1101) | specific CTL activity of CTL clone against control cells ([5]; COS7 transfected with either full-length KOC1 or HLA-A*1101) |
| --- | --- | --- | --- | --- | --- | --- | --- |
| ETAVVNVTY (a peptide derived from KOC1) [SEQ ID NO: 87] | potent IFN-gamma production | potent IFN-gamma production |  |  |  |  |  |
| APSDLESIFK (a peptide derived from KOC1) [SEQ ID NO: 32] |  |  | potent IFN-gamma production | Potent IFN-gamma production | potent IFN-gamma production | specific CTL activity; also recorded: potent CTL activity | a significant specific CTL activity was not shown; also recorded: a significant specific CTL activity was not detected |
